Laboratory results: PMC10033419, “Blocking NS3–NS4B interaction inhibits dengue virus in non-human primates” (Nature, 2023)

Test system: DENV-1/45AZ5
Assay: NHP DENV-1 study, serum viral RNA RT-qPCR
Format: in vivo, rhesus macaques
Procedure: WRAIR is fully accredited by AAALAC International.
Serum samples from macaques were checked for the presence of DENV-1 RNA. Viral RNA for RT–qPCR was extracted from 100–200 µl of serum using the QIAcube instrumentation and the QIAGEN Viral RNA extraction kits. The primers and fluorogenic probes used in the RT–qPCR assays have been previously described[63],[64]. DENV-1 RNA was detected in a 25 µl reaction containing 5 µl of extracted RNA sample, 10 pmol of dengue-specific primers and 5 pmol dengue probe in the reaction mixture from Superscript Ill Platinum One-Step Quantitative RT-PCR Kit (Invitrogen, Thermo Fisher Scientific), consisting of 0.5 µl Superscript III RT/Platinum mix, 12.5 µl 2× reaction mix and 0.05 µl ROX reference dye. The one-step RT–qPCR comprises a 30 min RT step at 50 °C and 2 min of Taq polymerase activation at 94 °C, followed by 40 cycles of PCR at 94 °C for 5 s and 53 °C for 35 s performed in an ABI 7500DX Fast Real Time PCR system. Each assay included positive, negative and non-template controls. The RNA copy number was calculated from a standard curve of tenfold serial dilutions made from RNA in vitro transcripts consisting of DENV-1 with known copy numbers. The LLOQ was 100 genomic copies per reaction.
This sample size was sufficient to detect a significant difference in the number of infected animals in each of the groups as low as 83%. […] Sample processing and conducting of assays was performed by laboratory technicians not involved in the treatment/manipulation of the animals.

## COc1cc(N[C@H](C(=O)c2c[nH]c3ccc(OC(F)(F)F)cc23)c2ccc(Cl)cc2OC)cc(S(C)(=O)=O)c1 [JNJ-1802]
Animal R9, Day 29, LOQ 100 GE/reaction
  qRT-PCR Assay Average GE/mL: 0.00E+00 GE/mL
Animal R10, Day 0
  qRT-PCR Assay Result: Negative
Animal R10, Day 0, Assay LOQ = 100 GE/reaction
  qRT-PCR Assay Average GE/mL: 0.00E+00 GE/mL
Animal R10, Day 1
  qRT-PCR Assay Result: Negative
Animal R10, Day 1, Assay LOQ = 100 GE/reaction
  qRT-PCR Assay Average GE/mL: 0.00E+00 GE/mL
Animal R10, Day 2
  qRT-PCR Assay Result: Negative
Animal R10, Day 2, Assay LOQ = 100 GE/reaction
  qRT-PCR Assay Average GE/mL: 0.00E+00 GE/mL
Animal R10, Day 3
  qRT-PCR Assay Result: Negative
Animal R10, Day 3, Assay LOQ = 100 GE/reaction
  qRT-PCR Assay Average GE/mL: 0.00E+00 GE/mL
Animal R10, Day 4
  qRT-PCR Assay Result: Negative
Animal R10, Day 4, Assay LOQ = 100 GE/reaction
  qRT-PCR Assay Average GE/mL: 0.00E+00 GE/mL
Animal R10, Day 5
  qRT-PCR Assay Result: Negative
Animal R10, Day 5, Assay LOQ = 100 GE/reaction
  qRT-PCR Assay Average GE/mL: 0.00E+00 GE/mL
Animal R10, Day 6
  qRT-PCR Assay Result: Negative
Animal R10, Day 6, Assay LOQ = 100 GE/reaction
  qRT-PCR Assay Average GE/mL: 0.00E+00 GE/mL
Animal R10, Day 7
  qRT-PCR Assay Result: Negative
Animal R10, Day 7, Assay LOQ = 100 GE/reaction
  qRT-PCR Assay Average GE/mL: 0.00E+00 GE/mL
Animal R10, Day 8
  qRT-PCR Assay Result: Negative
Animal R10, Day 8, Assay LOQ = 100 GE/reaction
  qRT-PCR Assay Average GE/mL: 0.00E+00 GE/mL
Animal R10, Day 9
  qRT-PCR Assay Result: Negative
Animal R10, Day 9, Assay LOQ = 100 GE/reaction
  qRT-PCR Assay Average GE/mL: 0.00E+00 GE/mL
Animal R10, Day 10
  qRT-PCR Assay Result: Negative
Animal R10, Day 10, Assay LOQ = 100 GE/reaction
  qRT-PCR Assay Average GE/mL: 0.00E+00 GE/mL
Animal R10, Day 11
  qRT-PCR Assay Result: Negative
Animal R10, Day 11, Assay LOQ = 100 GE/reaction
  qRT-PCR Assay Average GE/mL: 0.00E+00 GE/mL
Animal R10, Day 14
  qRT-PCR Assay Result: Negative
Animal R10, Day 14, Assay LOQ = 100 GE/reaction
  qRT-PCR Assay Average GE/mL: 0.00E+00 GE/mL
Animal R10, Day 29
  qRT-PCR Assay Result: Negative
Animal R10, Day 29, Assay LOQ = 100 GE/reaction
  qRT-PCR Assay Average GE/mL: 0.00E+00 GE/mL
Animal R11, Day 0
  qRT-PCR Assay Result: Negative
Animal R11, Day 0, Assay LOQ = 100 GE/reaction
  qRT-PCR Assay Average GE/mL: 0.00E+00 GE/mL
Animal R11, Day 1
  qRT-PCR Assay Result: Negative
Animal R11, Day 1, Assay LOQ = 100 GE/reaction
  qRT-PCR Assay Average GE/mL: 0.00E+00 GE/mL
Animal R11, Day 2
  qRT-PCR Assay Result: Negative
Animal R11, Day 2, Assay LOQ = 100 GE/reaction
  qRT-PCR Assay Average GE/mL: 0.00E+00 GE/mL
Animal R11, Day 3
  qRT-PCR Assay Result: Negative
Animal R11, Day 3, Assay LOQ = 100 GE/reaction
  qRT-PCR Assay Average GE/mL: 0.00E+00 GE/mL
Animal R11, Day 4
  qRT-PCR Assay Result: Negative
Animal R11, Day 4, Assay LOQ = 100 GE/reaction
  qRT-PCR Assay Average GE/mL: 0.00E+00 GE/mL
Animal R11, Day 5
  qRT-PCR Assay Result: Negative
Animal R11, Day 5, Assay LOQ = 100 GE/reaction
  qRT-PCR Assay Average GE/mL: 0.00E+00 GE/mL
Animal R11, Day 6
  qRT-PCR Assay Result: Negative
Animal R11, Day 6, Assay LOQ = 100 GE/reaction
  qRT-PCR Assay Average GE/mL: 0.00E+00 GE/mL
Animal R11, Day 7
  qRT-PCR Assay Result: Negative
Animal R11, Day 7, Assay LOQ = 100 GE/reaction
  qRT-PCR Assay Average GE/mL: 0.00E+00 GE/mL
Animal R11, Day 8
  qRT-PCR Assay Result: Negative
Animal R11, Day 8, Assay LOQ = 100 GE/reaction
  qRT-PCR Assay Average GE/mL: 0.00E+00 GE/mL
Animal R11, Day 9
  qRT-PCR Assay Result: Negative
Animal R11, Day 9, Assay LOQ = 100 GE/reaction
  qRT-PCR Assay Average GE/mL: 0.00E+00 GE/mL
Animal R11, Day 10
  qRT-PCR Assay Result: Negative
Animal R11, Day 10, Assay LOQ = 100 GE/reaction
  qRT-PCR Assay Average GE/mL: 0.00E+00 GE/mL
Animal R11, Day 11
  qRT-PCR Assay Result: Negative
Animal R11, Day 11, Assay LOQ = 100 GE/reaction
  qRT-PCR Assay Average GE/mL: 0.00E+00 GE/mL
Animal R11, Day 14
  qRT-PCR Assay Result: Negative
Animal R11, Day 14, Assay LOQ = 100 GE/reaction
  qRT-PCR Assay Average GE/mL: 0.00E+00 GE/mL
Animal R11, Day 29
  qRT-PCR Assay Result: Negative
Animal R11, Day 29, Assay LOQ = 100 GE/reaction
  qRT-PCR Assay Average GE/mL: 0.00E+00 GE/mL
Animal R12, Day 0
  qRT-PCR Assay Result: Negative
Animal R12, Day 0, Assay LOQ = 100 GE/reaction
  qRT-PCR Assay Average GE/mL: 0.00E+00 GE/mL
Animal R12, Day 1
  qRT-PCR Assay Result: Negative
Animal R12, Day 1, Assay LOQ = 100 GE/reaction
  qRT-PCR Assay Average GE/mL: 0.00E+00 GE/mL
Animal R12, Day 2
  qRT-PCR Assay Result: Negative
Animal R12, Day 2, Assay LOQ = 100 GE/reaction
  qRT-PCR Assay Average GE/mL: 0.00E+00 GE/mL
Animal R12, Day 3
  qRT-PCR Assay Result: Negative
Animal R12, Day 3, Assay LOQ = 100 GE/reaction
  qRT-PCR Assay Average GE/mL: 0.00E+00 GE/mL
Animal R12, Day 4
  qRT-PCR Assay Result: Negative
Animal R12, Day 4, Assay LOQ = 100 GE/reaction
  qRT-PCR Assay Average GE/mL: 0.00E+00 GE/mL
Animal R12, Day 5
  qRT-PCR Assay Result: Negative
Animal R12, Day 5, Assay LOQ = 100 GE/reaction
  qRT-PCR Assay Average GE/mL: 0.00E+00 GE/mL
Animal R12, Day 6
  qRT-PCR Assay Result: Negative
Animal R12, Day 6, Assay LOQ = 100 GE/reaction
  qRT-PCR Assay Average GE/mL: 0.00E+00 GE/mL
Animal R12, Day 7
  qRT-PCR Assay Result: Negative
Animal R12, Day 7, Assay LOQ = 100 GE/reaction
  qRT-PCR Assay Average GE/mL: 0.00E+00 GE/mL
Animal R12, Day 8
  qRT-PCR Assay Result: Negative
Animal R12, Day 8, Assay LOQ = 100 GE/reaction
  qRT-PCR Assay Average GE/mL: 0.00E+00 GE/mL
Animal R12, Day 9
  qRT-PCR Assay Result: Negative
Animal R12, Day 9, Assay LOQ = 100 GE/reaction
  qRT-PCR Assay Average GE/mL: 0.00E+00 GE/mL
Animal R12, Day 10
  qRT-PCR Assay Result: Negative
Animal R12, Day 10, Assay LOQ = 100 GE/reaction
  qRT-PCR Assay Average GE/mL: 0.00E+00 GE/mL
Animal R12, Day 11
  qRT-PCR Assay Result: Negative
Animal R12, Day 11, Assay LOQ = 100 GE/reaction
  qRT-PCR Assay Average GE/mL: 0.00E+00 GE/mL
Animal R12, Day 14
  qRT-PCR Assay Result: Negative
Animal R12, Day 14, Assay LOQ = 100 GE/reaction
  qRT-PCR Assay Average GE/mL: 0.00E+00 GE/mL
Animal R12, Day 29
  qRT-PCR Assay Result: Negative
Animal R12, Day 29, Assay LOQ = 100 GE/reaction
  qRT-PCR Assay Average GE/mL: 0.00E+00 GE/mL
